Results on 37 compounds are retold here after ChEMBL document CHEMBL4808194, “Design, synthesis and biological evaluation of novel 2,4-disubstituted quinazoline derivatives targeting H1975 cells via EGFR-PI3K signaling pathway” (Bioorg Med Chem, 2021).

pIC50: −log10 of the molar value. Bounds are passed on as bounds.

Holding throughout (assay): cells
What all share (assay type): functional, cell-based

One test relates to NCI-H1975. The following applies: Homo sapiens, NCI-H1975, 72 h.
The next test concerns PC-3. The settings on record: Homo sapiens, PC-3, 72 h.
In a further test the test system is MGC-803. The settings on record: Homo sapiens, MGC-803, 72 h.
Another test relates to MDA-MB-231. The settings on record: Homo sapiens, MDA-MB-231, 72 h.

Description for MGC-803: Antiproliferative activity against human MGC-803 cells assessed as inhibition of cell growth incubated for 72 hrs by MTT assay
Description for NCI-H1975: Antiproliferative activity against human NCI-H1975 cells assessed as inhibition of cell growth incubated for 72 hrs by MTT assay
Description for PC-3: Antiproliferative activity against human PC-3 cells assessed as inhibition of cell growth incubated for 72 hrs by MTT assay

For the compound `C=CC(=O)Nc1cccc(NC(=O)CSc2nc(Nc3ccc(Cl)c(Cl)c3)c3ccccc3n2)c1`, the pIC50 is 4.72 in the test on NCI-H1975, 4.56 in the test on PC-3, under 4.30 in the test with MGC-803 and 4.75 with MDA-MB-231.
On to `O=C(CSc1nc(Nc2ccccc2)c2ccccc2n1)Nc1ccc(C(F)(F)F)cc1`, for which the pIC50 in the test on NCI-H1975 is 4.93; in the test with PC-3 it was 4.98; in the test with MGC-803, 5.06; with MDA-MB-231, 4.96.
Taken in the same sequence, the figures for `CCc1cccc(NC(=O)CSc2nc(Nc3ccccc3)c3ccccc3n2)c1` were 4.92, 4.96, 4.80 and 4.91.
Turning to `C=CC(=O)Nc1cccc(NC(=O)CSc2nc(Nc3ccccc3C)c3ccccc3n2)c1`, the pIC50 with NCI-H1975 is 5.00; in the test with PC-3, 4.64; with MGC-803, 4.52; with MDA-MB-231, 4.69.
For `C=CC(=O)Nc1cccc(NC(=O)CSc2nc(Nc3ccccc3Cl)c3ccccc3n2)c1`, the pIC50 was 5.00 with NCI-H1975, 4.84 in the test with PC-3, 4.68 in the test on MGC-803 and 4.90 in the test on MDA-MB-231.
Take `O=C(CSc1nc(Nc2ccccc2)c2ccccc2n1)Nc1ccc(F)cc1`: the pIC50 is 4.78 in the test with NCI-H1975, 5.02 in the test with PC-3, under 4.30 in the test with MGC-803 and 4.47 with MDA-MB-231.
Taken in the same sequence, the figures for `C=CC(=O)Nc1cccc(NC(=O)CSc2nc(Nc3ccc(Cl)cc3)c3ccccc3n2)c1` were 5.12, 4.97, 4.85 and 4.99.
In the same order, the values of `O=C(CSc1nc(Nc2ccccc2)c2ccccc2n1)Nc1ccc(F)c(Cl)c1` are 5.03, 4.81, 4.68 and 4.67.
Taken in the same sequence, the figures for `O=C(CSc1nc(Nc2ccccc2)c2ccccc2n1)Nc1cccc(Cl)c1` were 5.07, 4.90, 4.84 and 4.78.
In the case of `C=CC(=O)Nc1cccc(NC(=O)CSc2nc(Nc3cccc(OC)c3)c3ccccc3n2)c1`, the pIC50 in the test on NCI-H1975 was 5.10; in the test on PC-3, 4.46; with MGC-803, 4.62; in the test with MDA-MB-231, 4.89.
In the same order, the values of `O=C(CSc1nc(Nc2ccccc2)c2ccccc2n1)Nc1ccc(Br)cc1` are 4.97, 5.07, 4.71 and 4.94.
In the same order, the values of `C=CC(=O)Nc1cccc(NC(=O)CSc2nc(Nc3ccc(Br)cc3)c3ccccc3n2)c1` are 5.20, 4.91, 4.94 and 4.76.
Taken in the same sequence, the figures for `C=CC(=O)Nc1cccc(NC(=O)CSc2nc(Nc3cccc([N+](=O)[O-])c3)c3ccccc3n2)c1` were 4.65, 4.33, under 4.30 and under 4.30.
`O=C(CSc1nc(Nc2ccccc2)c2ccccc2n1)Nc1ccc(Cl)cc1`: the pIC50 was 5.09 in the test with NCI-H1975, 4.89 in the test with PC-3, 4.39 in the test with MGC-803 and 4.76 with MDA-MB-231.
In the case of `O=C(CSc1nc(Nc2ccccc2)c2ccccc2n1)Nc1ccc([N+](=O)[O-])cc1`, the pIC50 in the test on NCI-H1975 is 4.89; with PC-3 it was 4.60; in the test on MGC-803, under 4.30; in the test on MDA-MB-231, 4.78.
As for `O=C(CSc1nc(Nc2ccccc2)c2ccccc2n1)Nc1ccc(Cl)cc1Cl`, the pIC50 in the test with NCI-H1975 is 5.08; in the test on PC-3, 5.04; in the test on MGC-803 it was 4.91; in the test on MDA-MB-231, 4.71.
In the same order, the values of `O=C(CSc1nc(Nc2ccccc2)c2ccccc2n1)Nc1ccccc1F` are 5.03, 4.91, 4.97 and under 4.30.
On to `C=CC(=O)Nc1cccc(NC(=O)CSc2nc(Nc3cccc(C)c3)c3ccccc3n2)c1`, for which the pIC50 is 4.92 in the test on NCI-H1975, 4.53 with PC-3, 4.68 in the test with MGC-803 and 4.78 in the test on MDA-MB-231.
Taken in the same sequence, the figures for `O=C(CSc1nc(Nc2ccccc2)c2ccccc2n1)Nc1cccc(F)c1` were 5.17, 4.81, 4.90 and under 4.30.
Taken in the same sequence, the figures for `COc1cccc(NC(=O)CSc2nc(Nc3ccccc3)c3ccccc3n2)c1` were 4.71, 4.94, 5.00 and 4.66.
In the same order, the values of `C=CC(=O)Nc1cccc(NC(=O)CSc2nc(Nc3ccccc3F)c3ccccc3n2)c1` are 5.18, 5.03, 4.58 and 4.73.
Turning to `O=C(CSc1nc(Nc2ccccc2)c2ccccc2n1)Nc1ccccc1Br`, the pIC50 with NCI-H1975 was 4.99; in the test with PC-3, 4.70; in the test on MGC-803, 4.73; with MDA-MB-231 it was 4.85.
Taken in the same sequence, the figures for `O=C(CSc1nc(Nc2ccccc2)c2ccccc2n1)Nc1ccccc1Cl` were 5.02, 4.84, 4.61 and 4.61.
In the same order, the values of `CCc1ccc(NC(=O)CSc2nc(Nc3ccccc3)c3ccccc3n2)cc1` are 5.00, 4.75, under 4.30 and 4.47.
Taken in the same sequence, the figures for `C=CC(=O)Nc1cccc(NC(=O)CSc2nc(Nc3ccc(F)c(Cl)c3)c3ccccc3n2)c1` were under 4.30, under 4.30, 5.11 and 4.98.
`C=CC(=O)Nc1cccc(NC(=O)CSc2nc(Nc3cccc(Cl)c3)c3ccccc3n2)c1`: the pIC50 in the test with NCI-H1975 was 5.02; in the test on PC-3, 4.91; with MGC-803, 5.11; with MDA-MB-231 it was 4.79.
Taken in the same sequence, the figures for `C=CC(=O)Nc1cccc(NC(=O)CSc2nc(Nc3cc(OC)c(OC)c(OC)c3)c3ccccc3n2)c1` were under 4.30, under 4.30, under 4.30 and under 4.30.
Taken in the same sequence, the figures for `O=C(CSc1nc(Nc2ccccc2)c2ccccc2n1)Nc1cccc([N+](=O)[O-])c1` were 4.75, 4.93, 4.55 and 4.48.
Taken in the same sequence, the figures for `C=CC(=O)Nc1cccc(NC(=O)CSc2nc(Nc3ccc(C(F)(F)F)cc3)c3ccccc3n2)c1` were 4.89, 4.90, 4.92 and 4.94.
As to `C=CC(=O)Nc1cccc(NC(=O)CSc2nc(Nc3ccccc3)c3ccccc3n2)c1`, the pIC50 in the test on NCI-H1975 was 5.09; in the test on PC-3, 5.06; in the test with MGC-803, 5.14; in the test with MDA-MB-231, 4.99.
In the same order, the values of `O=C(CSc1nc(Nc2ccccc2)c2ccccc2n1)Nc1ccc(Cl)c(Cl)c1` are 4.98, 4.92, 4.42 and 4.84.
Taken in the same sequence, the figures for `O=C(CSc1nc(Nc2ccccc2)c2ccccc2n1)Nc1cccc(Br)c1` were 4.99, 4.94, 5.02 and 4.76.
Taken in the same sequence, the figures for `C=CC(=O)Nc1cccc(NC(=O)CSc2nc(Nc3cccc(Br)c3)c3ccccc3n2)c1` were 4.92, 4.82, 4.92 and 4.71.
`C=CC(=O)Nc1cccc(NC(=O)CSc2nc(Nc3ccc(Cl)cc3Cl)c3ccccc3n2)c1`: the pIC50 is 5.22 in the test on NCI-H1975, 4.59 in the test on PC-3, 4.92 in the test with MGC-803 and 4.64 in the test on MDA-MB-231.
In the same order, the values of `C=CC(=O)Nc1cccc(NC(=O)CSc2nc(Nc3ccc(F)cc3)c3ccccc3n2)c1` are 5.35, 5.08, 5.08 and 5.02.
With `C=CC(=O)Nc1cccc(NC(=O)CSc2nc(Nc3ccccc3Br)c3ccccc3n2)c1`, the pIC50 was 4.71 with NCI-H1975, 4.77 in the test on PC-3, 4.89 with MGC-803 and 4.82 in the test on MDA-MB-231.
In the same order, the values of `C=CC(=O)Nc1cccc(NC(=O)CSc2nc(Nc3ccc(CC)cc3)c3ccccc3n2)c1` are 5.08, 4.61, 5.10 and 4.84.

The pIC50 is the IC50 on a negative log10 scale, so that one unit is a factor of ten.
